Results as given in patent US20050020544A1, “Bicyclic CB2 cannabinoid receptor ligands” (priority 2002, published 2005).

How the values were obtained:
Male ICR mice [1] = assay: Rotarod locomotor ability; format: in vivo, mouse; conditions: 10 mg/kg i.p.
Protocol: The effect of test compounds on overall locomotor ability was assessed in a second experimental setup, where the animals were submitted to a functional test using the rotarod apparatus as described by Rozas et al. (Rozas G. et al., J. of Neuroscience Methods 83: 165-75, 1998). The animals, male ICR mice (average body weight 40 g, Harlan, Israel), were trained for 4 days before beginning the experiment. Their task was to stay on the accelerating rod without falling for 12 minutes (3 minutes at each speed). The tested speeds were: 15, 19, 23 and 27 rpm. Animal performance on the rod was scored as follows: each animal could obtain a maximum of 3 points (1 for each minute) for full walking on the rod at each speed. Therefore, an animal could get a maximum score of 12 points (3 for each speed). Catching the circling beam of the rod without walking subtracted 0.5 points for every 3 circles circled by the animal. […] After proper training, at least 6 animals per group were administered i.p. with various doses of test compounds and controls, at volume dose of 5 ml/kg. Score was determined in the rotarod apparatus at time zero prior to compound injection and 30 minutes, 3 and 24 hours after compound or vehicle administration.
Results are expressed as mean±SD and the differences between vehicle and treatments are compared by ANOVA, followed by post-hoc Tukey's test. […] This effect disappeared at later time points with average scores of 9.7 and 11.9 at 3 and 24 hours respectively.

Sprague Dawley male rats = assay: Tail flick model, i.v.; format: in vivo, rat; conditions: for % animals with latency time twice superior to vehicle: ninety minutes
Protocol: Each treatment group contained at least 6 animals. […] Its vehicle, saline, was also included as control.
Two parameters were used to analyze the results, the latency time and the % of animals showing analgesia. […] The results in both cases are expressed as mean±SE.
Similar studies were performed in Sprague Dawley male rats where the drug was injected i.v. instead of i.p. in the mice model. […] These observations are consistent with the route of administration. In the i.p. study the first time point post-injection was 30 minutes, while it was 10 minutes following i.v. injection thus the onset of action was not thoroughly determined in these experiments. […] At the last time point tested (330 minutes following injection), almost 70% of the animals treated with 4 mg/kg of compound A retained increase resistance to pain.

Male ICR mice [2] = assay: Visceral pain induced by i.p. acetic acid; format: in vivo, mouse
Protocol: Male ICR mice (25 g average body weight, Harlan, Israel) were pretreated by i.v. injection at volume dose of 5 ml/kg of vehicle, control and test compounds at various doses. Each treatment group was composed of at least 4 animals. Fifteen minutes later, the mice were injected i.p. with 10 ml/kg of 0.6% acetic acid and the number of withers is counted over a period of 5 minutes, starting 5 minutes after the acetic acid administration. The results are expressed as mean number of withers±SD.

[3] = test system: BALB/c inbred female mice; assay: ConA induced liver injury; format: in vivo, mouse; conditions: 1 mg/kg i.v., 8 hours of ConA treatment
Protocol: Each experimental group contains at least 5 BALB/c inbred female mice (25 g average weight, Harlan, Israel). The negative control group is composed of mice injected with saline instead of ConA. The injection of ConA (Sigma) is done i.v. at the base of the tail at the dose of 10 mg/kg in saline. The treatments are injected i.v. at 1 mg/kg, 30 minutes prior to the ConA injection. Compounds are dissolved in CREMOPHOR EL®:ethanol and vehicle only was included as an internal control.
Impact of treatment is monitored at three levels. First, blood samples (200-400 μl) are collected at predetermined time points alter ConA injection, using retro-orbital puncture. After short centrifugation (5000 rpm for 2 min) serum is recovered and stored at −80° C. until further use for determination of cytokines levels by ELISA and aminotransferase leakage from the liver as a marker for liver injury. In parallel, the level of cytokines, or other inflammatory mediators, is also determined in the organs of interests. For this purpose, the mice are killed by dislocation of the cervical vertebrae, at predetermined time points following ConA injection. […] Cells are incubated for 24 hours and cytokine levels in the supernatant are determined by ELISA as previously described.
The effect of compound A on liver injury was assessed by measuring the level of ALT in the plasma following 8 hours of ConA treatment. […]

Adult female BALB/c mice = format: in vivo, mouse; conditions: i.p. twice
Protocol: Adult female BALB/c mice (20 g average body weight, Harlan, Israel) were sensitized on day 0 and day 1 by application of 30 μl of 0.15% Dinitrofluorobenzene (DNFB) diluted in acetone on the shaved skin of the abdomen. On day 6 the animals were challenged by application of 10 μl of DNFB in acetone on one ear. The contralateral ear was not challenged but received the application of 10 μl acetone. Test compounds were administered at increasing doses from 0 to 15 mg/kg i.p. twice, the first injection was immediately after DNFB challenge (on day 6) and the second injection was 16 hours post challenge (on day 7). Each treatment group comprised at least 7 animals. Dexamethasone (DXM) was used as positive control. Ear thickness was determined (in 0.01 mm units) 24 hours after challenge (and 6 hours after second treatment on day 7) using a dial thickness gauge (Mitutoyo, Japan).
Results are analyzed as ear thickness of DNFB treated over DNFB untreated contralateral ear. The impact of the test compound was further assessed by comparing its mean impact on the animals of the treatment group to the response generated by the appropriate vehicle only.

| SMILES | rotarod average score (Male ICR mice [1]; 3 hours) | rotarod average score (Male ICR mice [1]; 24 hours) | rotarod average score (Male ICR mice [1]; thirty minutes, maximal score 12) | % animals with latency time twice superior to vehicle (Sprague Dawley male rats; 3 mg/kg i.v.) | % animals with increased resistance to pain (Sprague Dawley male rats; 4 mg/kg i.v., 330 minutes) | % animals with latency time twice superior to vehicle (Sprague Dawley male rats; 4 mg/kg i.v.) | inhibition of number of withers as compared to vehicle (Male ICR mice [2]; 0.5 mg/kg i.v.) | number of withers (Male ICR mice [2]; 0.5 mg/kg i.v., mean±SD) | inhibition of number of withers as compared to vehicle (Male ICR mice [2]; 1 mg/kg i.v.) | number of withers (Male ICR mice [2]; 1 mg/kg i.v., mean±SD) | inhibition of number of withers as compared to vehicle (Male ICR mice [2]; 2 mg/kg i.v.) | number of withers (Male ICR mice [2]; 2 mg/kg i.v.) | decrease in ALT in the plasma [3] | calculated IC50 reduction in ear thickness (Adult female BALB/c mice) | maximal inhibition (reduction in ear thickness) (Adult female BALB/c mice; doses 0 to 15 mg/kg, 24 hours after challenge) |
| --- | --- | --- | --- | --- | --- | --- | --- | --- | --- | --- | --- | --- | --- | --- | --- |
| CCCCCCC(C)(C)c1cc(O)c(C2CC(=O)C3CC2C3(C)C)c(O)c1 (single isomer, unassigned; (-)) [Compound A, (−)-4-[4-(1,1-Dimethyl-heptyl)2,6-dihydroxy-phenyl]-6,6-dimethyl-bicyclo[3.1.1)heptan-2-one] | 9.7 | 11.9 | 5.6 | 100% | ~70% | 100% | 64% | 7.9±4.8 | 95% | 1.2±0.6 | 100% | no withers at all | 65% | – | – |
| CCCCCCC(C)(C)c1cc(OC)c(C2C=C(CO)C3CC2C3(C)C)c(OC)c1 (single isomer, unassigned; (+)) [HU-308, (+) {4-[4-(1,1-dimethylheptyl)-2,6-dimethoxy-phenyl]-6,6-dimethyl-bicyclo[3.1.1]hept-2-en-2-yl}-methanol, reference compound] | – | – | – | – | – | – | – | – | – | – | – | – | – | 4.8 mg/kg | ~60% |
